The nature of data set [1]: Cytotoxicity against CEM cells. The data set is classed as cell-based. The settings on record: human.
Data set [2] is described as follows: Cytotoxicity against VERO cells. The data set is classed as cell-based. To be noted: African green monkey.
Data set [3] can be described thus: Cytotoxicity against PBM cells. The data set is classed as cell-based. To be noted: human.
A short description of data set [4]: Cell viability (neutral red) on the replicon system. The data set is classed as cell-based. To be noted: human, Huh7 cells harbouring the subgenomic HCV replicon BM4-5, neutral red test, drug renewed daily for three days, read-out: CC50, cytotoxicity on Replicon System. The procedure: (§1) Antiviral and Cytotoxicity assays for HCV. Huh7 cells harbouring the subgenomic HCV replicon BM4-5 (J. T. Guo et al., J. Virol. 2001, 75: 8516-8523) were used in this study. Cells were maintained in Dulbecco's modified Eagle's medium high glucose 4.5 g/l (LifeTechnlogies) supplemented with 10% fetal bovine serum, 1% L-glutamine, 1% penicillin and streptomycin, 1% L-Pyruvate and 500 μg/ml of geneticien (G418, Invitrogen). Geneticin was used to select cells permitting the HCV RNA replication. Cells were passaged every four days with a 1:4 ratio.
For cell viability assays, cells were seeded in 96-well plates at a density of 12,500 cells per well. They were treated by the different molecules with the same concentrations and conditions than those used for the antiviral assays. Then, cell viability was measured by neutral red assay. Neutral red specifically colors lysosomes and its accumulation depends on cellular membrane integrity. The yield of neutral red incorporated in cells is proportional to the number of living cells. At the end of treatment, culture medium was removed; cells were washed by PBS, then coloured with neutral red at 0.005% for 3 hours at 37° C. Cells were then fixed 1 minute by formol calcium and lysed by atreatment with a vol/vol mixture of acetic acid and ethanol. After 15 minutes incubation, absorbance was read at 490 nm.
In general terms: A replicon is a self-replicating genome or part of one, used to study replication in cells.

The test system of data set [5] is subgenomic HCV replicon BM4-5 in Huh7 cells. The data set can be described thus: Antiviral assay on HCV subgenomic replicon, Northern blot of (+)-strand HCV RNA. The data set is classed as cell-based, Hepatitis C Virus. The settings on record: for IC50 / IC90: Hepatitis C virus, 72 h, Huh7 BM4-5 replicon, positive strand HCV RNA by Northern blot, three days treatment; for IC50: read-out: IC50, anti-HCV activity, (+)-RNA; for IC90: read-out: IC90, anti-HCV activity, (+)-RNA; for Selectivity Index (SI), ratio between CC50 and IC50: replicon system. How it is done: as §1
Cells were seeded in 6-wells plates at a density of 2.5×10^5 cells per well, sixteen hours before the beginning of treatment. […] The administration of each drug was renewed every day for three consecutive days. Ribarivin (ICN Pharmaceuticals), mycophenolic acid (MPA, Sigma), and interferon alpha-2b (IntronA®)) were used in the same conditions as positive controls. The concentrations used for these drugs were respectively: 0; 0.5; 1; 2; 4; 8; 16; 32; 64; 128; 256 and 512 μM for ribavirin, 0; 2.5; 5; 10; 20; 40 μM for mycophenolic acid, and 0; 0.1; 1; 10; 100 and 1000 Ul/mL for IFN alpha-2b. Total RNA was extracted at the end of treatment (24 hours after the last day of treatment) with the <<Extract all>> reagent (Eurobio), which is a mix of phenol and guanidium thiocyanate. Northern blot analysis was then performed using the NorthernMax™-Gly kit (Ambion), following manufacturer's instructions. Five micrograms of total RNA were denaturated in glyoxal buffer at 50° C. for 30 minutes, separated by 1.1% agarose gel electrophoresis, and then transferred for 12 hours onto a charged nylon membrane (HybondN+, Amersham). Hybridization was carried out with three different [^32P]CTP-labelled riboprobes obtained by in vitro transcription (Riboprobe in vitro transcription system, Promega). Two probes were complementary to the NS5A region of the HCV genome of negative polarity and positive polarity. A third probe was complementary to the beta-actin mRNA and obtained by in vitro transcription from a specific plasmid (PTRI beta actin human, reference 7424, Ambion). First, the blot was hybridized with the riboprobes directed against the negative strand of HCV RNA and beta-actin mRNA, respectively. After one night of hybridization at 68° C., the membrane was washed, then exposed to X-ray film and a phosphor screen (phosphorimager). This screen was then scanned and quantitative analysis was achieved using ImageQuant software. The amount of beta-actin mRNA was used as an internal loading control to standardize the amount of HCV RNA detected. The same membrane was subsequently hybridized with the […] to determine the level of positive strand HCV RNA, suing the same approach.

One may read the CC50 as the concentration that lowers cell viability or growth by half. For orientation: IC50 means the concentration that gives 50% inhibition. In general, IC90 refers to the concentration needed for an effect of 90%. Broadly, the melting point is the temperature, or range, at which the solid turns liquid.

As for `O=c1[nH]c(=O)n([C@@H]2O[C@H](CO)[C@@H](O)[C@H]2O)cc1/C(Br)=C\I` [Compound 15b, (E)-5-(1-Bromo-2-iodovinyl)-uridine], the CC50 in data set [1] was 93.6 µM; in data set [2], above 100 µM; in data set [3], above 100 µM. Besides, the CC50 at 3 days in data set [4] is above 100 µM. For the same compound, the IC50 in data set [5] was above 100 µM. In data set [5], the IC90 is above 100 µM. For the same compound, in data set [5], the “Selectivity Index (SI), ratio between CC50 and IC50” value is “≦1”.
As for `CC(=O)OC[C@@H]1C[C@@H](OC(C)=O)[C@H](n2cc(/C(I)=C\I)c(=O)[nH]c2=O)O1`, the melting point lay within 75 to 77 °C.
In the case of `CC(=O)OC[C@H]1O[C@@H](n2cc(/C(Br)=C\I)c(=O)[nH]c2=O)C[C@@H]1OC(C)=O`, the melting point was 82 to 84 °C.
Compound `CC(=O)OC[C@@H]1C[C@@H](OC(C)=O)[C@H](n2cc(C(Br)=CBr)c(=O)[nH]c2=O)O1` displayed a melting point of 78 to 80 °C.
Regarding `O=c1[nH]c(=O)n([C@H]2C[C@H](O)[C@@H](CO)O2)cc1/C(Br)=C\Br` [Compound 17a, (E)-5-(1,2-Dibromovinyl)-2′-deoxyuridine], in data set [1], it took 43.9 µM to reach half-maximal cytotoxicity (CC50). Also, the CC50 in data set [2] was above 100 µM. In addition, the CC50 in data set [3] is above 100 µM. Further, the CC50 at 3 days in data set [4] is above 200 µM. In data set [5], the IC50 is below 200 µM; the IC90 is above 200 µM; the “Selectivity Index (SI), ratio between CC50 and IC50” value is listed as “≧1”.
In turn, `O=c1[nH]c(=O)n([C@@H]2O[C@H](CO)[C@@H](O)[C@H]2O)cc1/C(Br)=C\Br` [Compound 17b, (E)-5-(1,2-Dibromovinyl)-uridine] came in with a 50% cytotoxic concentration (CC50) in data set [1] above 100 µM. The same compound returned a CC50 in data set [2] of 59.8 µM. The compound further displayed a CC50 in data set [3] above 100 µM. For the same compound, in data set [4], the CC50 at 3 days is above 200 µM. In data set [5], the IC50 is above 200 µM; the IC90 was above 200 µM; the “Selectivity Index (SI), ratio between CC50 and IC50” value is “≦1”.
`O=c1[nH]c(=O)n([C@@H]2O[C@H](CO)C[C@H]2O)cc1C#CI` [Compound 12c, 5-(2-Iodoethynyl)-3′-deoxyuridine] yielded a CC50 in data set [1] above 100 µM. In data set [2], this compound showed a CC50 of 3.2 µM. Also, the CC50 in data set [3] is above 100 µM. In data set [4], the CC50 at 3 days was above 200 µM. Also, in data set [5], the IC50 is above 200 µM; the 90% effect concentration (IC90) is above 200 µM; the “Selectivity Index (SI), ratio between CC50 and IC50” value is on record as “≦1”.
`COc1c(C)c2c(c(O)c1C/C=C(\C)CCC(=O)O)C(=O)OC2` [MPA, mycophenolic acid, reference compound]: the CC50 at 3 days in data set [4] stood at 7 µM. Further, in data set [5], the IC50 was determined as 40 µM; the “Selectivity Index (SI), ratio between CC50 and IC50” value is on record as below 1.
With `O=c1[nH]c(=O)n([C@@H]2O[C@H](CO)C[C@H]2O)cc1/C(I)=C\I` [Compound 14c, (E)-5-(1,2-Diiodovinyl)-3′-deoxyuridine], the CC50 in data set [1] was above 100 µM; in data set [2] it was 42.6 µM; in data set [3], 87.2 µM. Further, the CC50 at 3 days in data set [4] was above 200 µM. For the same compound, the IC50 in data set [5] is above 200 µM. Moreover, the IC90 in data set [5] was above 200 µM. In addition, in data set [5], the “Selectivity Index (SI), ratio between CC50 and IC50” value was “≦1”.
`CC(=O)OC[C@H]1O[C@@H](n2cc(C(Br)=CBr)c(=O)[nH]c2=O)C[C@@H]1OC(C)=O` yielded a melting point of 79 to 81 °C.
Take `O=c1[nH]c(=O)n([C@@H]2O[C@H](CO)C[C@H]2O)cc1C#CBr` [Compound 13c, 5-(2-Bromoethynyl)-3′-deoxyuridine]: the CC50 in data set [1] is above 100 µM. In addition, in data set [2], the CC50 was 6.4 µM. Further, the CC50 in data set [3] was above 100 µM. In data set [4], the CC50 at 3 days was above 300 µM. Besides, in data set [5], the IC50 is above 300 µM; the IC90 is above 300 µM; the “Selectivity Index (SI), ratio between CC50 and IC50” value is “≦1”.
Compound `CC(=O)OC[C@H]1O[C@@H](n2cc(/C(I)=C\I)c(=O)[nH]c2=O)C[C@@H]1OC(C)=O` showed a melting point of 76 to 78 °C.
Consider `O=c1[nH]c(=O)n([C@H]2C[C@H](O)[C@@H](CO)O2)cc1/C(Br)=C\I` [Compound 15a, (E)-5-(1-Bromo-2-iodovinyl)-2′-deoxyuridine], for which the CC50 in data set [1] is 0.13 µM. The same compound returned a CC50 in data set [2] of 6.6 µM. This compound had a CC50 in data set [3] of 13.3 µM. Also, the CC50 at 3 days in data set [4] turned out to be 43 µM. Moreover, in data set [5], the IC50 was above 100 µM; the IC90 was above 100 µM; the “Selectivity Index (SI), ratio between CC50 and IC50” value is recorded as below 1.
As to `CC(=O)OC[C@H]1O[C@@H](n2cc(/C(Br)=C\Br)c(=O)[nH]c2=O)[C@H](OC(C)=O)[C@@H]1OC(C)=O`, the melting point fell in the range of 83 to 85 °C.
In turn, `O=c1[nH]c(=O)n([C@@H]2O[C@H](CO)C[C@H]2O)cc1/C(Br)=C\Br` [Compound 17c, (E)-5-(1,2-Dibromovinyl)-3′-deoxyuridine] displayed a CC50 in data set [1] of 79.3 µM. This compound displayed a CC50 in data set [2] of 7.8 µM. In data set [3], this compound displayed a CC50 above 100 µM. Also, in data set [4], the CC50 at 3 days was above 200 µM. For the same compound, in data set [5], the IC50 is above 200 µM; the IC90 was above 200 µM; the “Selectivity Index (SI), ratio between CC50 and IC50” value is on record as “≦1”.
`O=c1[nH]c(=O)n([C@H]2C[C@H](O)[C@@H](CO)O2)cc1/C(Cl)=C\I` [Compound 16a, (E)-5-(1-Chloro-2-iodovinyl)-2′-deoxyuridine]: the CC50 stood at 14.8 µM in data set [1], 1.4 µM in data set [2] and 3.2 µM in data set [3]. Also, the CC50 at 3 days in data set [4] was 213 µM. In addition, the IC50 in data set [5] was 79.8 µM. The IC90 in data set [5] was above 207 µM. In addition, the “Selectivity Index (SI), ratio between CC50 and IC50” value in data set [5] is given as 2.7.
Consider `O=c1[nH]c(=O)n([C@H]2C[C@H](O)[C@@H](CO)O2)cc1C#CBr` [Compound 13a, 5-(2-Bromoethynyl)-2′-deoxyuridine], for which the CC50 in data set [1], in data set [2] and in data set [3] was above 100 µM throughout. In addition, the CC50 at 3 days in data set [4] is above 200 µM. Besides, the concentration for half-maximal inhibition (IC50) in data set [5] was above 200 µM. Besides, in data set [5], the IC90 is above 200 µM. In data set [5], the “Selectivity Index (SI), ratio between CC50 and IC50” value was “≧1”.
Regarding `CC(=O)OC[C@H]1O[C@@H](n2cc(C#CI)c(=O)[nH]c2=O)C[C@@H]1OC(C)=O`, the melting point is 175 to 177 °C (dec.).
For `CC(=O)OC[C@H]1O[C@@H](n2cc(/C(Br)=C\I)c(=O)[nH]c2=O)[C@H](OC(C)=O)[C@@H]1OC(C)=O`, the melting point was 86 to 88 °C.
`O=c1[nH]c(=O)n([C@@H]2O[C@H](CO)C[C@H]2O)cc1/C(Cl)=C\I` [Compound 16c, (E)-5-(1-Chloro-2-iodovinyl)-3′-deoxyuridine]: the CC50 in data set [1] was determined as 66.6 µM; in data set [2], 15.3 µM; in data set [3] it was 94.4 µM. Also, in data set [4], the CC50 at 3 days was above 200 µM. Further, the IC50 in data set [5] was above 200 µM. In data set [5], the IC90 was above 200 µM. Moreover, the “Selectivity Index (SI), ratio between CC50 and IC50” value in data set [5] is recorded as “≦1”.
Take `CC(=O)OC[C@H]1O[C@@H](n2cc(C#CI)c(=O)[nH]c2=O)[C@H](OC(C)=O)[C@@H]1OC(C)=O`: the melting point lay within 100 to 102 °C.
In turn, `CC(=O)OC[C@H]1O[C@@H](n2cc(/C(I)=C\I)c(=O)[nH]c2=O)[C@H](OC(C)=O)[C@@H]1OC(C)=O` yielded a melting point of 83 to 85 °C.
In data set [1], `O=c1[nH]c(=O)n([C@@H]2O[C@H](CO)[C@@H](O)[C@H]2O)cc1C#CI` [Compound 12b, 5-(2-Iodoethynyl)-uridine] registered a cytotoxic concentration (CC50) above 100 µM. In data set [2], this compound had a CC50 above 100 µM. The same compound returned a CC50 in data set [3] above 100 µM. In addition, the CC50 at 3 days in data set [4] was determined as 148 µM. Besides, in data set [5], the IC50 was above 200 µM; the IC90 was above 200 µM; the “Selectivity Index (SI), ratio between CC50 and IC50” value is below 1.

For the origin of these results see patent US20090004137A1, “Uridine Derivatives as Antiviral Drugs Against a Flaviviridae, Especially Hcv” (priority 2004, published 2009).
